Experimental data taken from patent publication US20220395500A1, “SMALL MOLECULE ACTIVATORS OF INTERFERON REGULATORY FACTOR 3 AND METHODS OF USE THEREOF” (Neuralexo, Inc., priority 2020, published 2022).
Like-named read-outs stand apart in the source and are kept apart here.

Columns and labels:
[1] = J774-Dual cytotoxicity; type: cell-based, mouse; settings: mouse, J774-Dual cells, read-out: J774 cytotox CC50
In short: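 CC50 derived from 8-point concentration series in mouse J774-Dual reporter cells, with viability read by CellTiter-Glo in the same plate. Run in parallel with EC50 and ISRE:NFκB ratio determination for cross-species confirmation.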

[2] = system: IRF-Lucia luciferase reporter (ISRE) in THP1-Dual cells; experiment: THP1-Dual IRF-Lucia luciferase reporter assay (ISRE activation); type: cell-based, human; settings: for EC50: read-out: THP1 IRF EC50; for IRF3 and NF-κB reporter activity: human THP1 and mouse J774 macrophage-like cells
In short: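 Supernatant luminescence from the ISG54/ISRE-driven Lucia reporter was measured after 24 h exposure to 10 μM compound (LPS 313 ng/mL in control wells).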

[3] = THP1-Dual cytotoxicity (Cell Titer Glo, ATP); type: cell-based, human; settings: human, THP1-Dual cells, read-out: Thp1 cytotox CC50
In short: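 CC50, the concentration killing half the cells, was derived from ATP-dependent CellTiter-Glo luminescence. Cells were THP1-Dual (human) and compound was tested as an 8-point dose-response series, with viability read in the same plate.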

[4] = Homo sapiens, THP1-Dual, Human Reporter Cell Line, 8-point dose response
[5] = Homo sapiens, THP1-Dual, Human Reporter Cell Line THP1

SMILES	EC50 [2, 4] [µM]	EC50 [2, 5] [µM]	CC50 ([1]; Mouse Reporter Cell Line) [µM]	CC50 ([3]; Human Reporter Cell Line) [µM]	CC50 ([1]; Mouse Reporter Cell Line J774) [µM]	CC50 ([3]; Human Reporter Cell Line THP1) [µM]	further results
O=C(Nc1ccc(N2CCN(C(=O)c3cccs3)CC2)cc1)c1ccc(-c2ccccc2)nc1 [NA-41]	10.7	–	> 25	> 25	–	–	–
O=C(Nc1ccc(N2CCN(C(=O)c3cccs3)CC2)cc1)c1ccc(Br)cc1 [NA-14]	~2.62	–	> 25	> 25	–	–	–
O=C(Nc1ccc(N2CCN(C(=O)c3cccs3)CC2)cc1)c1ccc(-c2ccncc2)cc1 [NA-38]	~11.2	–	> 25	> 25	–	–	–
COc1ccc(C(=O)Nc2cc(-c3nc4ccccc4s3)ccc2C)cc1[N+](=O)[O-] [ND52, N-[5-(1,3-benzothiazol-2-yl)-2-methylphenyl]-4-methoxy-3-nitrobenzamide]	–	3.89	–	–	–	27.6	–
O=C(Nc1ccc(N2CCN(C(=O)c3ccsc3)CC2)cc1)c1ccc(OCc2ccccc2)nc1 [NA-1]	1.94	–	13.7	10.5	–	–	–
CCOc1cccc(COc2ccc(C(=O)Nc3ccc(N4CCN(C(=O)c5cccs5)CC4)cc3)cc2)c1 [NA42, 4-((3-ethoxybenzyl)oxy)-N-(4-(4-(thiophene-2-carbonyl)piperazin-1-yl)phenyl)benzamide]	3.6	–	37.2	121	–	–	–
Cc1c(Br)ccc(C(=O)Nc2ccc(N3CCN(C(=O)c4cccs4)CC3)cc2)c1C [NA-16]	6.46	–	> 25	> 25	–	–	–
COc1ccc(C(=O)Nc2cc(-c3nc4cc(C)c(C)cc4o3)ccc2C)cc1[N+](=O)[O-] [ND13, N-(5-(5,6-dimethylbenzo[d]oxazol-2-yl)-2-methylphenyl)-4-methoxy-3-nitrobenzamide]	–	0.975	–	–	4.32	8.76	–
Cc1ccc(NC(=O)c2cc(NC(=O)c3cccs3)ccc2N2CCOCC2)cc1Cl [NB-8]	–	4.7	–	–	> 25	> 25	–
O=C(Nc1ccc(N2CCN(C(=O)c3cccs3)CC2)cc1)c1ccc(OCc2ccccc2)nc1 [NA-59]	~2.53	–	36.1	16	–	–	–
Cc1ccc2c(=O)c3cccc(CC(=O)O)c3oc2c1C [DMXAA, 5,6-dimethylxanthenone-4-acetic acid]	–	–	–	–	–	–	ISRE activation in THP1-Dual cell line ([2]; THP1-Dual): not effective
CCOc1cccc(COc2ccc(C(=O)Nc3ccc(N4CCN(C(=O)c5cccs5)CC4)cc3)cc2)c1 [NA-42, 4-((3-ethoxybenzyl)oxy)-N-(4-(4-(thiophene-2-carbonyl)piperazin-1-yl)phenyl)benzamide]	–	–	–	–	–	–	IRF3 and NF-κB reporter activity ([2]; 8-point dose response): high IRF3 activity and low off-target NF-κB activation
COc1ccc(C(=O)Nc2cc(-c3nc4cc(C)c(C)cc4o3)ccc2C)cc1[N+](=O)[O-] [ND-13, N-(5-(5,6-dimethylbenzo[d]oxazol-2-yl)-2-methylphenyl)-4-methoxy-3-nitrobenzamide]	–	–	–	–	–	–	IRF3 and NF-κB reporter activity ([2]; 8-point dose response): high IRF3 activity and low off-target NF-κB activation
O=C(Nc1ccc(N2CCN(C(=O)c3cccs3)CC2)cc1)c1cccc2c(Br)cccc12 [NA-21, 5-bromo-N-{4-[4-(2-thienylcarbonyl)-1-piperazinyl]phenyl}-1-naphthamide]	0.73	–	63.8	39.4	–	–	–
COc1ccc(C(=O)Nc2cc(-c3nc4ccccc4s3)ccc2C)cc1[N+](=O)[O-] [ND-38]	–	–	–	–	–	–	EC50 ([2]; Human Reporter Cell Line THP1): 4.29 µM
Cc1cc(NC(=O)c2sc3cc(Cl)ccc3c2Cl)ccc1NC(=O)c1ccco1 [NC-2]	7.98	–	> 25	> 25	–	–	–
Cc1ccc(NC(=O)c2cc(NC(=O)c3cccs3)ccc2N2CCOCC2)cc1Br [NB-23]	–	3.27	–	–	36.9	30.5	–
O=C(Nc1ccc(N2CCN(C(=O)c3cccs3)CC2)cc1)c1sc2cc(Cl)ccc2c1Cl [NA-20]	1.94	–	43.6	11.8	–	–	–
O=C(Nc1ccc(N2CCN(C(=O)c3cccs3)CC2)cc1)c1ccc(Cl)c2ccccc12 [NA13]	~1.55	–	> 25	> 25	–	–	–

More lines, main results first:

EC50 [2, 4] [µM]	EC50 [2, 5] [µM]	SMILES	CC50 ([1]; Mouse Reporter Cell Line) [µM]	CC50 ([3]; Human Reporter Cell Line) [µM]	CC50 ([1]; Mouse Reporter Cell Line J774) [µM]	CC50 ([3]; Human Reporter Cell Line THP1) [µM]	further results
1.71	–	O=C(Nc1ccc(N2CCN(C(=O)c3cccs3)CC2)cc1)c1ccc(OCc2ccc(F)c(F)c2F)cc1 [NA-23]	22.1	12.7	–	–	–
–	3.12	COc1ccc(-c2nc3cc(C(C)C)ccc3o2)cc1NC(=O)c1ccc(C)c([N+](=O)[O-])c1 [ND-16]	–	–	> 25	32.7	–
1.43	–	O=C(Nc1ccc(N2CCN(C(=O)c3cccs3)CC2)cc1)c1ccc(-c2cc3ccccc3oc2=O)cc1 [NA-32]	67.2	36.6	–	–	–
3.29	–	Cc1ccc(COc2ccc(C(=O)Nc3ccc(N4CCN(C(=O)c5cccs5)CC4)cc3)cc2)cc1 [NA-25]	> 25	35.5	–	–	–
–	32.1	ClCCCOc1ccc(-c2nc3cc(OCCCN4CCCC4)ccc3o2)cc1 [ND-94]	–	–	> 25	> 25	–
–	2.53	Cc1ccc(NC(=O)c2cc(NC(=O)c3ccccc3)ccc2N2CCOCC2)cc1Cl [NB-1]	–	–	> 111	32.8	–
2.68	–	CCOc1ccc(C(=O)Nc2ccc(N3CCN(C(=O)c4cccs4)CC3)cc2)cc1Br [NA-30]	40.7	18.8	–	–	–
4.45	–	COc1ccc(C(=O)Nc2ccc(OCc3ccccc3)cc2)cc1[N+](=O)[O-] [NA-44]	> 25	50.3	–	–	–
3.14	–	COc1cccc(COc2ccc(C(=O)Nc3ccc(N4CCN(C(=O)c5cccs5)CC4)cc3)cc2)c1 [NA-24, 4-((3-methoxybenzyl)oxy)-N-(4-(4-(thiophene-2-carbonyl)piperazin-1-yl)phenyl)benzamide]	36.2	16.8	–	–	–
–	10.6	COc1ccc(C(=O)Nc2cccc(-c3nc4ncccc4o3)c2)cc1Br [ND-47]	–	–	> 25	> 25	–
–	0.59	COCOc1ccc2oc(-c3ccc(C)c(NC(=O)c4ccc(OC)c([N+](=O)[O-])c4)c3)nc2c1 [ND-95, 4-methoxy-N-(5-(5-(methoxymethoxy)benzo[d]oxazol-2-yl)-2-methylphenyl)-3-nitrobenzamide]	–	–	> 25	26.7	–
–	~4.1	COCOc1ccc2oc(-c3ccc(C)c([N+](=O)[O-])c3)nc2c1 [ND-96]	–	–	> 25	30.1	–
–	6.16	Cc1ccc(-c2nc3ccccc3s2)cc1NC(=O)c1cccc(Cl)c1 [ND-80]	–	–	> 25	33.9	–
–	~12.4	COc1ccc(C(=O)Nc2nc(-c3cc4ccccc4oc3=O)cs2)cc1 [ND-1]	–	–	> 25	> 25	–
–	8.42	O=C(Cc1ccc(Cl)cc1)Nc1cccc(-c2nnc(-c3ccco3)o2)c1 [ND-7]	–	–	> 25	> 25	–
1.84	–	O=C(Nc1ccc(N2CCN(C(=O)c3cccs3)CC2)cc1)c1ccc(OCc2cccc(Cl)c2)cc1 [NA-33]	25.5	9.58	–	–	–
7.02	–	O=C(Nc1ccc(N2CCN(C(=O)c3cccs3)CC2)cc1)c1ccc(-c2ccccc2)cn1 [NA-39]	> 25	> 25	–	–	–
–	1.12	COc1ccc(C(=O)Nc2cc(-c3nc4cc(C(C)C)ccc4o3)ccc2C)cc1[N+](=O)[O-] [ND-2]	–	–	65.8	27.6	–
–	2.23	O=C(Nc1ccc(N2CCOCC2)c(C(=O)Nc2ccc(OCc3ccccc3)cc2)c1)c1cccs1 [NB-18]	–	–	> 25	> 25	–
–	~1.57	Cc1ccc(NC(=O)c2cc(NC(=O)Cc3ccccc3)ccc2N2CCOCC2)cc1Cl [NB-3]	–	–	> 25	52.5	–
–	14.7	CC(C)CC(=O)Nc1ccc2oc(-c3cccc(I)c3)nc2c1 [ND-5]	–	–	> 25	> 25	–
–	6.07	Cc1ccc(NC(=O)c2cc(NC(=O)c3cccs3)ccc2N2CCOCC2)cc1 [NB-17]	–	–	> 25	> 25	–
